What was measured:
SARS-CoV-2 [1] = assay type: cell-based
SARS-CoV-2 [2] = assay type: cell-based; conditions: commercially available nasal spray tested at 5-fold dilution
[3] = test system: monocytes, macrophages and lymphocytes; experiment: In vitro experiments in monocytes, macrophages and lymphocytes; assay type: cell-based
HIV = assay type: cell-based; conditions: in vitro
[4] = Human wound healing model (skin blister); assay type: in vivo
[5] = Blood cell effects in rats, including total body X-irradiation; assay type: in vivo
[6] = test system: radiation-induced, chemical-induced and metastatic malignant and benign tumors; experiment: Antitumor effects against induced and metastatic tumors; assay type: in vivo
[7] = Humoral and cellular immunity (Jerne plaque and footpad swelling tests); assay type: in vivo
[8] = test system: PBMCs isolated from normal donors; experiment: Gene expression in PBMCs by quantitative RT-PCR (Light Cycler System); assay type: cell-based, human

Question: What does the source list for tetrachlorodecaoxide [TCDO]?
Answer: cytopathic effect and SARS-CoV-2 infection of Vero E6 cells (SARS-CoV-2 [1]): significantly reduced; inhibition of viral propagation (SARS-CoV-2 [2]): highly potent; antigen presentation [3]: decrease antigen presentation; macrophage tumor necrosis factor (TNF) expression [3]: decrease macrophage tumor necrosis factor (TNF) expression; macrophage-fibroblast cooperation [3]: enhance macrophage-fibroblast cooperation; oxidative burst in monocytes [3]: stimulate an oxidative burst in monocytes; phagocytosis [3]: increase phagocytosis; anti-HIV properties (HIV): displayed anti-HIV properties; number of macrophages infiltrating the skin blister [4]: increased the number of macrophages infiltrating the skin blister; proportion of granulocytes, PBMCs and LGLs [5]: increased the proportion of granulocytes, peripheral blood monocytes (PBMCs) and large granular lymphocytes (LGLs); erythropoiesis ([5]; after total body X-irradiation): stimulated erythropoiesis; direct antitumor effects [6]: displayed direct antitumor effects; humoral and cellular immune responses ([7]; Jerne plaque and footpad swelling tests): increased both the humoral and cellular immune responses; proportions of T-helper and T-suppressor/cytotoxic cells ([7]; spleen and thymus): altered proportions of T-helper and T-suppressor/cytotoxic cells; CD14 cell (macrophage) inflammatory gene expression [8]: short-term upregulation; inducible gene expression related to macrophage dependent T-cell activation (IL-2, IL-4, IL-17) [8]: notable inhibition

Reference: patent US20220143081A1, “SYSTEM AND METHOD OF TREATING INFLAMMATORY LUNG DISEASES” (priority 2020, published 2022)
